Our source for the RP-LC retention time values is the METLIN SMRT retention time set (Domingo-Almenara et al. 2019).

The nature of the data set: gradient 5% acetonitrile 3 min, to 50% in 2 min, to 85% in 15 min, held 3 min, 100 µL/min. The note with it: column: Zorbax Extend-C18 2.1 x 50 mm; eluents: water / acetonitrile, 0.1% formic acid. The essentials: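 Mixtures of ~100 pure standards were chromatographed on a Zorbax Extend-C18 column (2.1 × 50 mm, 1.8 μm) at 100 μL/min using water and acetonitrile, each with 0.1% formic acid. Detection used a quadrupole time-of-flight mass spectrometer in positive and negative ionization mode, and data collection spanned 3 months. Retention time was obtained from adduct peaks picked computationally and each checked manually.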
The molecule `COc1ccc(NC(=O)N2CCC(C)(C(=O)NCc3ccc4c(c3)OCO4)CC2)c(OC)c1` registered an RP-LC retention time of 720 s.
With `Cn1cc(-c2ccncc2)cc1C(=O)NCc1ccc(F)cc1Cl` the figure was 653 s.
For `O=C(c1ccc[nH]1)N1CCN(C(=O)c2ccco2)CC1`, the RP-LC retention time came to 600 s.
With `CCn1c(=O)c(NCc2ccccc2Cl)nc2ccncc21` the figure was 659 s; with `CCOc1ccc(S(=O)(=O)N2CCCN(c3ccc(=O)n(-c4ccccc4)n3)CC2)cc1`, 892 s; with `Cc1ccc2c(c1)N(Cc1cccc(F)c1)N=C(C(=O)N1CCC(C)CC1)S2(=O)=O`, 1070 s.
Molecule `CCC1CCCCN1C(=O)c1cnc2nc(C)ccc2c1Nc1cc(OC)ccc1OC` (stereo not given) had an RP-LC retention time of 689 s.
With `Cc1ccc(NC(=O)Nc2nccn(-c3ccc(Br)cc3)c2=O)cc1F` the figure was 1080 s; with `CCc1ccc(Nc2nc(C(=O)N3CCCCCC3)nc3ccccc23)cc1`, 910 s.
With `Cc1ccc(C(=O)N2CCC3(CC2)N=C(c2ccc(Cl)cc2)NO3)s1` the figure was 901 s.
With `O=C(c1cnccn1)N1CC(c2nc(CCOCC3CCCC3)no2)C1` the figure was 601 s; with `COc1cc(NC(=O)Cn2nc3cc(-c4ccccc4)nc(C)n3c2=O)cc(OC)c1`, 736 s.
`O=C(CCc1nc2ccccc2n(CC(=O)Nc2ccc3c(c2)OCCO3)c1=O)NCc1ccccc1` yielded an RP-LC retention time of 782 s.
With `O=C(Nc1cccc(Br)c1)N1CCCC1c1nc(-c2ccc(F)cc2F)no1` (stereo not given) the figure was 1060 s; with `O=C(Nc1ccc(F)cc1)c1nnc(CSCC(=O)N2CCN(c3ccccn3)CC2)s1`, 657 s; with `CCc1ccc(CNC(=O)Cn2cc(-c3nnco3)c3ccccc32)cc1`, 866 s.
Molecule `Cc1ccc(NC(=O)Nc2ccc3nncn3c2)cc1C` came in with an RP-LC retention time of 730 s.
For `CCOC(=O)CCc1c(C)nn(-c2cc(N3CCCC3)ncn2)c1C`, the RP-LC retention time worked out at 868 s.
With `NS(=O)(=O)c1ccc(CCNS(=O)(=O)c2cccc(-c3nc(-c4ccccc4)no3)c2)cc1` the figure was 952 s; with `O=C(CN1C(=O)CSCC1=O)Nc1ccc2c(c1)OCO2`, 638 s.
`O=C(Cn1cccn1)N1CCN(c2ncccn2)CC1`: the RP-LC retention time amounted to 567 s.
With `Cc1[nH]c(C)c(S(=O)(=O)N2CCC(C(=O)NC3CCCC3)CC2)c1C(=O)N1CCCC1` the figure was 659 s; with `O=S(=O)(c1cccc2nsnc12)N1CCCC1c1noc(CO)n1` (stereo not given), 682 s; with `CC(C)NC(=O)c1cc2nc(N(C)C)n(-c3ccc(F)cc3)c2s1`, 627 s.
With `CCCNC(=O)C1CCN(Cc2cc3ccccc3n2Cc2ccccc2)CC1` the figure was 704 s; with `Cc1[nH]c(=O)[nH]c(=O)c1CCC(=O)Nc1ccccc1C(N)=O`, 547 s.
With `O=C(c1cccc(-n2cnnn2)c1)N1CCN(Cc2nc(-c3ccc(F)cc3)cs2)CC1` the figure was 666 s.
`Cc1cc(C)c(C#N)c(SCC(=O)N2CCOCC2)n1` yielded an RP-LC retention time of 721 s.
With `O=C(c1cc2c(s1)CCC(C(=O)N1CCOCC1)C2)N1CCCCC1` (stereo not given) the figure was 701 s; with `CCn1cnc(S(=O)(=O)N2CCC(C(=O)Nc3nc4ccc(OC)cc4s3)CC2)c1`, 748 s; with `CCCn1ccc2oc(C)c(C(=O)N3CCC(N4CCCCC4)CC3)c2c1=O`, 590 s.
`O=C(Nc1ccc2c(c1)N(C(=O)c1ccco1)CCC2)Oc1ccccc1` showed an RP-LC retention time of 850 s.
`Nc1c(C(=O)Nc2cc(F)ccc2F)nnn1-c1ccccc1`: the RP-LC retention time worked out at 989 s.
With `CCN(C(=O)Cn1ncc2c(c1=O)N(C)C(=O)CS2)c1cccc(C)c1` the figure was 756 s; with `O=C(CC1CCN(C(=O)C2CCCCC2)CC1)NCCc1c[nH]c2ccc(Cl)cc12`, 871 s.
`O=C1[C@H]2CN(Cc3cc(Br)ccc3F)C[C@H]2C(=O)N1CCc1ccccc1` registered an RP-LC retention time of 1030 s.
With `Cc1nnsc1C(=O)Nc1nnc(-c2ccnn2C)o1` the figure was 665 s; with `Cc1sc2ccn(CC(C)C)c(=O)c2c1C(=O)N1CCCCC1`, 837 s; with `CC(C)CC(NC(=O)c1ccc(F)cc1)C(=O)Nc1nc2ccccc2[nH]1` (stereo not given), 746 s.
With `CCc1noc(NC(C)=O)c1-c1ccc(C)c(S(=O)(=O)NCc2ccc(F)cc2)c1` the figure was 814 s.
With `O=C(c1ccccn1)N1CC(n2cnnc2C2CCCO2)C1` (stereo not given) the figure was 582 s.
For `O=C(CC1CCN(C(=O)c2ccc3oc(C4CC4)nc3c2)CC1)NCc1ccccn1`, the RP-LC retention time came out at 605 s.
With `Cc1ccc(-c2nnc(Cc3nc(-c4ccc(OCC(C)C)cc4)no3)o2)cc1F` the figure was 919 s.
With `CN1C(=O)CCc2cc(NC(=O)c3n[nH]c4ccccc34)ccc21` the figure was 730 s; with `O=C(Cn1c(=O)cc(-c2nc(C3CC3)no2)c2ccccc21)NCc1ccc2c(c1)OCO2`, 906 s.
`CC(C)c1nn2c(S(=O)(=O)NC3CCCCC3)c(C(C)C)nc2s1` showed an RP-LC retention time of 1110 s.
In turn, `CC(=O)N1CCc2sc(C(=O)N3CCN(c4ccccc4)CC3)cc2C1` yielded an RP-LC retention time of 732 s.
With `O=c1[nH]c(-c2cccc(O)c2)nc2sc3c(c12)CCCC3` the figure was 830 s; with `CC1CCCN(C(=O)c2cn(-c3ccc(S(=O)(=O)N4CCCC(C)C4)cn3)cn2)C1` (stereo not given), 939 s; with `Fc1ccc(-c2noc(Cc3nnc(-c4cccc(Cl)c4)o3)n2)cc1`, 1070 s.
With `Cc1ccc(NC(=O)c2cc(C(C)(C)C)n3nccc3n2)cc1` the figure was 1320 s; with `O=C(NC1CC1)[C@@H]1C[C@H](Oc2cccnc2)CN1C(=O)Cn1c(=O)oc2ccccc21`, 596 s; with `COC(=O)c1ccc(-c2nc3cnccn3c2Nc2cc(OC)ccc2OC)cc1`, 870 s.
With `Cc1ccsc1C(=O)NCC1CN(C(C)C)CC12CCCCC2` (stereo not given) the figure was 652 s.
`Cc1ccc(NC(=O)C2CCN(S(=O)(=O)c3ccc4c(c3)sc(=O)n4C)CC2)cc1Cl`: the RP-LC retention time is 978 s.
With `CCN(C(=O)Cn1ccn2nc(-c3ccccc3)c(CO)c2c1=O)c1ccccc1` the figure was 838 s.
With `COc1ccc(OC)c(NC(=O)N2CCc3cn(CC(C)C)c4cccc(c34)C2)c1` the figure was 1160 s; with `Cc1ccc(NC(=O)Cn2ccc3sccc3c2=O)c(Cl)c1`, 802 s; with `CC1=NS(=O)(=O)N(Cc2ccccc2)C=C1C(=O)OCc1nc(-c2ccc(F)cc2)no1`, 1140 s.
For `Cc1ccc(C(=O)Nc2cc(-c3ccsc3)no2)c(C)c1`, the RP-LC retention time came out at 1030 s.
With `CC(C)C(NC(=O)c1ccc(F)c(Cl)c1)C(=O)Nc1nc2ccccc2[nH]1` (stereo not given) the figure was 756 s.
With `CC(C)NC(=O)c1ccc(OCC2CCN(C(=O)c3ccc(F)c(Cl)c3)CC2)cc1` the figure was 922 s; with `O=C(O)c1cc2cccc([N+](=O)[O-])c2[nH]1`, 746 s; with `O=C(NCC1(CO)CC1)NC(c1ccccc1)c1ccccc1`, 706 s.
With `O=C1[C@H]2CN(Cc3ccc(Cl)c(F)c3)C[C@H]2C(=O)N1Cc1ccc2c(c1)OCO2` the figure was 953 s.
As for `COc1ccc(S(=O)(=O)Nc2ccc3nc(-c4ccc(F)cc4)cc(OC)c3c2)cc1`, the RP-LC retention time is 774 s.
The molecule `CCN1CCN(CCNC(=O)c2nc3ccccn3c2-c2ccc(Cl)cc2)CC1` returned an RP-LC retention time of 782 s.
With `Cn1c(CCNC(=O)c2cccc(C(F)(F)F)c2)nc2cccnc21` the figure was 664 s; with `Cc1cc(N2CCOCC2)n2nc(-c3ccc(C(C)(C)C)cc3)nc2n1`, 960 s; with `Cc1cccc(N2CCN(C(=O)C3CCCN(c4cc(=O)n(C)c(=O)n4C)C3)CC2)c1C` (stereo not given), 874 s.
With `CCOc1ccc(NC(=O)Cc2c(C)nn(-c3nc(-c4ccc(Cl)cc4)cs3)c2C)cc1` the figure was 1260 s; with `CCOC(=O)c1nc(NC2CCCCCC2)c2ccccc2n1`, 827 s.
With `COc1ccc(-c2oc3ccc(OC)cc3c2C(=O)NCCN2CCOCC2)cc1` the figure was 591 s; with `CCOC(=O)c1nc(Nc2ccccc2OCC)c2c(CC)noc2n1`, 1100 s; with `CC(=O)N1CCc2cc(N3CC(C(=O)Nc4ccc(F)c(F)c4)CC3=O)ccc21` (stereo not given), 726 s.
`Cc1nn(-c2nc(-c3ccc(F)cc3)cs2)c(C)c1CC(=O)Nc1ccc(F)cc1` came in with an RP-LC retention time of 1150 s.
With `CCCCOc1ccc(-c2nc(C3CC(=O)N(c4ccc(Cl)cc4)C3)no2)cc1` (stereo not given) the figure was 1350 s.
With `O=C(NCCC1=CCCCC1)C1CC(=O)N(C2CCCCCC2)C1` (stereo not given) the figure was 906 s; with `CSc1ccc(NC(=O)NC2CCN(c3ccc(F)cc3)C2=O)cc1` (stereo not given), 847 s.
With `CCS(=O)(=O)Nc1ccc(S(=O)(=O)Nc2nc(C)cc(C)n2)cc1` the figure was 598 s.
